# Source: US6489318B1, “Ethylidene derivatives of tricyclic carbapenems” (LEK, tovarna farmacevtskih in kemicnih izdelkov, d.d., priority 1996, dated 2002)
# Tested on: β-lactamase of Escherichia coli 3.5.2.6
# Experiment: Hydrolysis of nitrocefin with β-lactamase in the presence of inhibitors (spectrophotometric, 495 nm)
# Assay type: biochemical
# Settings: substrate nitrocefin 190 μmole/l; inhibitor 10 μmole/l
# Method: Determination of inhibitory action of the compounds of the formula I upon the enzyme β-lactamase
# The inhibitory action of the compounds of the formula I was determined according to standard methodology (Bush, K. and Sykes, R. B. Methods of Enzymatic Analysis, Third Edition, Vol. 4, p. 280, Verlag Chemie GmbH, Weinheim, 1984). The method comprises a spectrophotometric quantitative (band at 495 nm) measurement of catalytic action of the enzyme β-lactamase from the E. coli EC 3.5.2.6 strain. As a substrate nitrocefin ((7R)-3-((E)-2,4-dinitrostiryl)-7-(2-thienylacetamido)-3-cefem-4-carboxylic acid) was used which has the broadest spectrum of susceptibility and sensibility. The hydrolysis of nitrocefin in the presence of an inhibitor of the enzyme β-lactamase was determined.
# Hydrolysis of nitrocefin with β-lactamase of Escherichia coli 3.5.2.6 in the presence of inhibitors
row,SMILES,Inhibitory activity (%)
1,"C/C=C1/C(=O)N2C(C(=O)[O-])=C3CCCC[C@@H]3[C@H]12.[Na+] [compound B, sodium (8S,9R)-10-((E)-ethylidene)-11-oxo-1-azatricyclo[7.2.0.0^3,8]undec-2-ene-2-carboxylate]",23%
2,"CC1(C)[C@H](C(=O)O)N2C(=O)C[C@H]2S1(=O)=O [sulbactam, reference compound]",50%
3,"C/C=C1/C(=O)N2C(C(=O)O)=C3CCSC[C@H]3[C@H]12 [compound A, sodium (8R,9R)-10-((E)-ethylidene)-11-oxo-1-aza-6-thiatricyclo[7.2.0.0^3,8]undec-2-ene-2-carboxylate]",38%
